Experimental data taken from PubChem BioAssay (NCI).
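The compound was tested at five concentrations on cells cultured in 96-well plates, with a 48-hour exposure period. TGI is the concentration that stops growth completely.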

Legend:
Assay in all cases: NCI-60 cell line screen, 48 h
SF-268 CNS = test system: SF-268 CNS
NCI-H23 lung = test system: NCI-H23 lung
OVCAR-4 ovarian = test system: OVCAR-4 ovarian
NCI-H226 lung = test system: NCI-H226 lung
HT29 colon = test system: HT29 colon
SF-295 CNS = test system: SF-295 CNS
TK-10 renal = test system: TK-10 renal
SF-539 CNS = test system: SF-539 CNS
SK-OV-3 ovarian = test system: SK-OV-3 ovarian
NCI/ADR-RES ovarian = test system: NCI/ADR-RES ovarian

Row | Structure (SMILES) | TGI (SF-268 CNS) [µM] | TGI (NCI-H23 lung) [µM] | TGI (OVCAR-4 ovarian) [µM] | TGI (NCI-H226 lung) [µM] | TGI (HT29 colon) [µM] | TGI (SF-295 CNS) [µM] | TGI (TK-10 renal) [µM] | TGI (SF-539 CNS) [µM] | TGI (SK-OV-3 ovarian) [µM] | TGI (NCI/ADR-RES ovarian) [µM]
1 | CCOC(=O)c1sc2nc(SC)nc3c2c1NC(=O)CN3c1ccc(F)cc1 | 36.2 | > 100 | > 100 | 91.5 | > 100 | 57.9 | > 100 | 33.3 | 57.7 | 
2 | CO[P@@]1(=O)O[C@@H](c2ccccc2)[C@H](O)[C@@]1(O)c1ccccc1 | > 100 | > 100 | > 100 | > 100 | > 100 | > 100 | > 100 | > 100 | > 100 | > 100
3 | CCn1c2ccccc2c2ccc(C3C4C(=O)N(c5cccc6ccccc56)C(=O)C4ON3C(C(N)=O)c3ccccc3)cc21 (stereo unspecified) | > 25 | > 25 | > 25 | 8.05 | > 25 | > 25 | 21.8 | > 25 | > 25 | > 25
4 | Nc1ccc(Oc2ccc(C34CC5C6CC7(c8ccc(Oc9ccc(N)cc9)cc8)CC5C(C3)C(C7)C6C4)cc2)cc1 | > 100 | > 100 | > 100 | > 100 | > 100 | > 100 | > 100 |  |  | > 100
5 | CCCCCCC(=O)OC[n+]1ccc(-c2c(COC(=O)NC(C)C)c(COC(=O)NC(C)C)c3n2CCC3)cc1 | > 100 | > 100 | > 100 | > 100 | > 100 | > 100 | > 100 | > 100 | > 100 | > 100
6 | CCCCC(CC)C(=O)Oc1ccc(C(=O)c2ccccc2)c(O)c1 (stereo unspecified) | > 100 | > 100 | > 100 |  | > 100 | > 100 | > 100 | > 100 | > 100 | > 100
7 | Nc1[nH]c(=O)nc2c1cnn2COCCO | > 100 | 53.2 | > 100 | 6.36 | > 100 | > 100 | 99.9 | > 100 |  | 
8 | CCCCC/C=C\C=C\CCCCCCCCC(=O)OC | > 100 | > 100 | > 100 | > 100 | > 100 | > 100 | > 100 | > 100 | > 100 | > 100
9 | C/C(=C\[Si](C)(C)c1ccco1)C(C)(O)[C@H](C)O (stereo partly specified) | > 100 | 86.4 | 12.8 | > 100 | > 100 | > 100 | > 100 | > 100 | > 100 | > 100
10 | CC(C)CC(N)C(=O)NC(CNC(CCC(N)=O)C(=O)NC(CC(C)C)C(=O)NC(CC(C)C)C(=O)O)Cc1ccc2ccccc2c1 (stereo unspecified) | > 10 | > 10 | > 10 | > 10 | > 10 | > 10 | > 10 | > 10 | > 10 | > 10
11 | CC1CC(C)(O)C2C3(C)CCCC2(COC3=O)C12CCC1(CCOC1=O)O2 (stereo unspecified) | > 250 | > 250 | > 250 | > 250 | > 250 | > 250 |  | > 250 | > 250 | > 250
12 | [O-]c1c2c(nn1-c1ccc(F)cc1)c1ccccc1c[n+]2Cc1ccccc1 | 40.7 | 55.8 | 66.2 | 47.4 | 27.1 | 40.4 | 83 | 8.57 | 41.8 | 
13 | CN(C)CCC(=O)[C@@]1(O)CC[C@H]2[C@@H]3CC=C4C[C@@H](O)CC[C@]4(C)[C@H]3CC[C@@]21C | 32.2 | 56.1 | > 78.2 | > 100 | 37.5 | > 73.9 | 6.96 | 8.61 | > 66.8 | 72.1
14 | CCCCCCCCCCCCCCCCCCN(C)CC(COC)OP(=O)([O-])OCC[N+](C)(C)C (stereo unspecified) | 4.17 | 11.7 | 9.75 | 13.5 | 4.66 | 4.71 | 3.06 | 13 | 25.1 | 33.3
15 | CC1(C=O)CC(CCc2ccccc2)NC1Cc1ccc(O)cc1 (stereo unspecified) | 33.1 | 43.5 | 29 | 31.5 | 29.5 | 33.8 | 31.8 | 29.4 | 33.4 | 37.6
16 | Cc1csc2nc(-c3cc([N+](=O)[O-])c(Cl)cc3Cl)c(/C=N/N=C(N)N)n12 | 39.7 | 33 | 29.8 | 34.6 | 30.5 | 38.8 | 32.4 | 35.1 |  | 32
